Source: patent publication US7829563B2, “Aminoamides as orexin antagonists” (Hoffmann-La Roche Inc., priority 2007, dated 2010)
Structures can show the parent of a compound that is named as a salt.

target: T1, human orexin-2 (hOX2) receptors (Homo sapiens, UniProt O43614); assay: Intracellular Ca2+ mobilization assay (FLIPR), antagonism of orexin-A; format: cell-based; conditions: CHO(dHFr−) cells stably expressing hOX2; orexin-A at EC80 as agonist; Kb=IC50/(1+[A]/EC50); read-out: Kb (μM) OX2R (human)
T1 construct: expressed in transfected cells
T1 sequence (O43614 1-444): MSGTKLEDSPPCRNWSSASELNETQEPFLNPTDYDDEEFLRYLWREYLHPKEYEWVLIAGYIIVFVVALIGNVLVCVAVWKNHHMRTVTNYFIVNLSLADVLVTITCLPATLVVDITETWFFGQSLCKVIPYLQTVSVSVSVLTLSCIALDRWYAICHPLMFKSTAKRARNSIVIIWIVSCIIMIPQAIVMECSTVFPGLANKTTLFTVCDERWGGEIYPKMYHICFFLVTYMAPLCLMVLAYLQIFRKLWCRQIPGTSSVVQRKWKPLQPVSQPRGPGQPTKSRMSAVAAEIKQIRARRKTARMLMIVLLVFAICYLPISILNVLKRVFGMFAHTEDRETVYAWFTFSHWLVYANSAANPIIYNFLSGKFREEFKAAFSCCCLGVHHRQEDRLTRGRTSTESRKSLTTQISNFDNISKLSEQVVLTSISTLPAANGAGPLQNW
Procedure: R^7 and R^8 in scheme 5 are hydrogen, and the other substituents are as described above The compounds were investigated in accordance with the test given hereinafter. Intracellular Ca^2+ Mobilization Assay
The Chinese Hamster Ovary (dHFr−) mutant cell line stably expressing human orexin-1 (hOX1) or human orexin-2 (hOX2) receptors were maintained in Dulbecco's Modified Eagle Medium (1×) with GlutaMax™ 1, 4500 mg/L D-Glucose and Sodium Pyruvate (Catalog No. 31966-021, Invitrogen, Carlsbad, Calif.), 5% dialyzed fetal calf serum (Catalog No. 26400-044), 100 μg/ml penicillin and 100 μg/ml streptomycin. The cells were seeded at 5×10^4 cells/well in the poly-D-lysine treated, 96-well, black/clear-bottomed plates (Catalog No. BD356640, BD Biosciences, Palo Alto, Calif.). 24 h later, the cells were loaded for 1 h at 37° C. with 4 μM Flou-4 acetoxymethyl ester (Catalog No. F-14202, Molecular Probes, Eugene, Oreg.) in FLIPR buffer (1×HBSS, 20 mM HEPES, 2.5 mM Probenecid). Hanks' Balanced Salt Solution (HBSS) (10×) (catalog No. 14065-049) and HEPES (1M) (catalog No. 15630-056) were purchased from Invitrogen, Carlsbad, Calif. Probenecid (250 mM) (catalog No. P8761) was from Sigma, Buchs, Switzerland. The cells were washed five times with FLIPR buffer to remove excess dye and intracellular calcium mobilization, [Ca^2+]i were measured using a Fluorometric Imaging Plate Reader (FLIPR-96, Molecular Devices, Menlo Park, Calif.) as described previously (Malherbe et al., Mol. Pharmacol., 64, 823-832, 2003). Orexin A (catalog No. 1455, Toris Cookson Ltd, Bristol, UK) was used as agonist. Orexin A ([…] stock solution in DMSO) was diluted in FLIPR buffer+0.1% BSA. The EC50 and EC80 values of orexin-A were measured daily from standard agonist concentration-response curves in CHO(dHFr−)-OX1R and —OX2R cell lines. All compounds were dissolved in 100% DMSO. Inhibition curves were determined by addition of 11 concentrations (0.0001-10 μM) of inhibitory compounds and using EC80 value of orexin-A as agonist (a concentration which gave 80% of max agonist response, determined daily). The antagonists were applied 25 min (incubation at 37° C.) before the application of the agonist. Responses were measured as peak increase in fluorescence minus basal, normalized to the maximal stimulatory effect induced by EC80 value of orexin-A or orexin-B. Inhibition curves were fitted according to the Hill equation: y=100/(1+(x/IC50)^nH), where nH=slope factor using Excel-fit 4 software (Microsoft). Kb values were calculated according to the following equation Kb=IC50/(1+[A]/EC50) where A is the concentration of agonist added which is very close to agonist EC80 value, and IC50 and EC50 values were derived from the antagonist inhibition and orexin-A or B agonist curves, respectively.

SMILES | Kb [µM]
CNC(=O)[C@H](N[C@@H](CCc1ccc(C(F)(F)F)cc1)c1ccc(OC)c(OC)c1)c1ccc(Cl)cc1 [Example 94, (R)-2-(4-Chloro-phenyl)-2-[(S)-1-(3,4-dimethoxy-phenyl)-3-(4-trifluoromethyl-phenyl)-propylamino]-N-methyl-acetamide] | 0.0051
CCNC(=O)[C@H](NC(CCc1ccc(C(F)(F)F)cc1)c1ccc(OC)c(OC)c1)c1ccccc1 (single isomer, unassigned) [Example 13, (R)-2-[(R or S)-1-(3,4-Dimethoxy-phenyl)-3-(4-trifluoromethyl-phenyl)-propylamino]-N-ethyl-2-phenyl-acetamide] | 0.0026
CNC(=O)[C@H](N[C@@H](CCc1ccc(C)nc1)c1ccc(F)c(C)c1)c1ccccc1 [Example 262, (R)-2-[(S)-1-(4-Fluoro-3-methyl-phenyl)-3-(6-methyl-pyridin-3-yl)-propylamino]-N-methyl-2-phenyl-acetamide] | 0.0173
CNC(=O)[C@@H](N[C@@H](CCc1ccc(C(F)(F)F)cc1)c1ccc(OC)c(OC)c1)c1ccccc1 (racemic) [Example 141, (S,R)-2-[(S,R)-1-(3,4-Dimethoxy-phenyl)-3-(4-trifluoromethyl-phenyl)-propylamino]-N-methyl-2-phenyl-acetamide] | 0.0168
CNC(=O)[C@H](N[C@@H](CCc1ccc(C(F)(F)F)nc1)c1ccc(OC)c(OC)c1)c1ccccc1 [Example 200, (R)-2-[(S)-1-(3,4-Dimethoxy-phenyl)-3-(6-trifluoromethyl-pyridin-3-yl)-propylamino]-N-methyl-2-phenyl-acetamide hydrochloride] | 0.0028
CNC(=O)[C@H](N[C@@H](CCc1ccc(C(F)(F)F)cc1)c1ccc(OC)c(OC)c1)c1ccccc1 (racemic) [Example 142, (S,R)-2-[(R,S)-1-(3,4-Dimethoxy-phenyl)-3-(4-trifluoromethyl-phenyl)-propylamino]-N-methyl-2-phenyl-acetamide] | 0.003
CNC(=O)[C@H](N[C@@H](CCc1ccc(C(F)(F)F)cc1)c1cccc(OC(F)F)c1)c1ccccc1 [Example 387, (R)-2-[(S)-1-(3-Difluoromethoxy-phenyl)-3-(4-trifluoromethyl-phenyl)-propylamino]-N-methyl-2-phenyl-acetamide] | 0.008
CNC(=O)[C@H](N[C@@H](CCc1ccc(C(F)(F)F)nc1)c1ccc(F)c(OC)c1)c1ccc(F)cc1 (racemic) [Example 240, (S,R)-2-[(R,S)-1-(4-Fluoro-3-methoxy-phenyl)-3-(6-trifluoromethyl-pyridin-3-yl)-propylamino]-2-(4-fluoro-phenyl)-N-methyl-acetamide] | 0.0107
CNC(=O)C(NC(CCc1ccc(C(F)(F)F)cc1)c1sc(C)nc1C)c1ccc(F)cc1 (centres unmarked) [Example 80, 2-[1-(2,4-Dimethyl-thiazol-5-yl)-3-(4-trifluoromethyl-phenyl)-propylamino]-2-(4-fluoro-phenyl)-N-methyl-acetamide] | 0.0192
CNC(=O)[C@H](N[C@@H](CCc1ccc(C(F)(F)F)nc1)c1ccc(F)c(OC)c1)c1ccccc1 (racemic) [Example 232, (S,R)-2-[(R,S)-1-(4-Fluoro-3-methoxy-phenyl)-3-(6-trifluoromethyl-pyridin-3-yl)-propylamino]-N-methyl-2-phenyl-acetamide] | 0.0085
CNC(=O)[C@H](N[C@@H](CCc1ccc(C(F)(F)F)nc1)c1ccc(F)c(C)c1)c1ccc(OC)cc1 (racemic) [Example 350, (R,S)-2-[(S,R)-1-(4-fluoro-3-methyl-phenyl)-3-(6-trifluoromethyl-pyridin-3-yl)-propylamino]-2-(4-methoxy-phenyl)-N-methyl-acetamide] | 0.0164
CNC(=O)[C@H](N[C@@H](CCc1ccc(C)cc1)c1ccc(F)c(C)c1)c1ccccc1 [Example 397, (R)-2-[(S)-1-(4-Fluoro-3-methyl-phenyl)-3-p-tolyl-propylamino]-N-methyl-2-phenyl-acetamide] | 0.0042
CNC(=O)[C@@](C)(N[C@@H](CCc1ccc(C(F)(F)F)cc1)c1ccc(OC)c(OC)c1)c1ccccc1 (single isomer, unassigned) [Example 29] | 0.0184
CNC(=O)C(NC(CCc1ccc(C(F)(F)F)cc1)c1sc(C)nc1C)c1ccccc1 (centres unmarked) [Example 93, 2-[1-(2,4-Dimethyl-thiazol-5-yl)-3-(4-trifluoromethyl-phenyl)-propylamino]-N-methyl-2-phenyl-acetamide] | 0.017
CNC(=O)[C@H](N[C@@H](CCc1ccc(C(F)(F)F)nc1)c1ccc(F)c(C)c1)c1ccc(C)cc1 (racemic) [Example 334, (R,S)-2-[(S,R)-1-(4-Fluoro-3-methyl-phenyl)-3-(6-trifluoromethyl-pyridin-3-yl)-propylamino]-N-methyl-2-p-tolyl-acetamide] | 0.01
CNC(=O)[C@H](N[C@@H](CCc1ccc(Cl)cn1)c1ccc(OC(F)F)c(OC(F)F)c1)c1ccccc1 (racemic) [Example 306, (S,R)-2-[(R,S)-1-(3,4-Bis-difluoromethoxy-phenyl)-3-(5-chloro-pyridin-2-yl)-propylamino]-N-methyl-2-phenyl-acetamide] | 0.0063
CNC(=O)[C@H](N[C@@H](CCc1ccc(Cl)cc1)c1ccc(F)c(C)c1)c1ccccc1 [Example 392, (R)-2-[(S)-3-(4-Chloro-phenyl)-1-(4-fluoro-3-methyl-phenyl)-propylamino]-N-methyl-2-phenyl-acetamide] | 0.0059
CNC(=O)[C@H](N[C@@H](CCc1ccc(C(F)(F)F)nc1)c1ccc(Cl)c(OC)c1)c1ccccc1 (racemic) [Example 216, (S,R)-2-[(R,S)-1-(4-Chloro-3-methoxy-phenyl)-3-(6-trifluoromethyl-pyridin-3-yl)-propylamino]-N-methyl-2-phenyl-acetamide] | 0.0073
Cc1cc([C@H](CCc2ccc(C(F)(F)F)nc2)N[C@@H](C(N)=O)c2ccccc2)ccc1F [Example 353, (R)-2-[(S)-1-(4-Fluoro-3-methyl-phenyl)-3-(6-trifluoromethyl-pyridin-3-yl)-propylamino]-2-phenyl-acetamide] | 0.0057
CNC(=O)[C@H](N[C@@H](CCc1cnc(Cl)cn1)c1ccc(OC(F)F)c(OC(F)F)c1)c1ccccc1 (racemic) [Example 297, (S,R)-2-[(R,S)-1-(3,4-Bis-difluoromethoxy-phenyl)-3-(5-chloro-pyrazin-2-yl)-propylamino]-N-methyl-2-phenyl-acetamide] | 0.0153
CNC(=O)[C@H](N[C@@H](CCc1ccc(C(F)(F)F)nc1)c1ccc(Cl)c(OC)c1)c1ccc(F)cc1 (racemic) [Example 224, (S,R)-2-[(R,S)-1-(4-Chloro-3-methoxy-phenyl)-3-(6-trifluoromethyl-pyridin-3-yl)-propylamino]-2-(4-fluoro-phenyl)-N-methyl-acetamide] | 0.0057
CNC(=O)[C@H](N[C@@H](CCc1ccc(Cl)cc1)c1ccc2c(c1)CCO2)c1ccccc1 (racemic) [Example 38, (S,R)-2-[(R,S)-3-(4-Chloro-phenyl)-1-(2,3-dihydro-benzofuran-5-yl)-propylamino]-N-methyl-2-phenyl-acetamide] | 0.0096
CNC(=O)[C@H](N[C@@H](CCc1ccc(Cl)cc1)c1ccc(OC)c(OC)c1Cl)c1ccccc1 [Example 98, (R)-2-[(S)-1-(2-Chloro-3,4-dimethoxy-phenyl)-3-(4-chloro-phenyl)-propylamino]-N-methyl-2-phenyl-acetamide] | 0.0014
